Laboratory results reported in ChEMBL document CHEMBL5325401, “Computer-aided identification, synthesis, and biological evaluation of DNA polymerase η inhibitors for the treatment of cancer” (Eur J Med Chem, 2023).
Values after ≈ are worked out from the molar mass of the structure shown.

Tests used:
[1] = molecular target: T1, DNA polymerase eta (Homo sapiens, UniProt Q9Y253); assay: (§1) Inhibition of C-terminal 6xHis-tagged human DNA polymerase eta (1 to 511 residues) expressed in Escherichia coli BL21 DE3 using 5'-IRD700-GCAGGTCGACTCCAAAG-3' primer/ 5'-TCGGTACCGGGTTAGCCTTTGGAGTCGACCTGC-3' template as DNA substrate incubated for 60 mins in presence of Mg2+ by bromophenol blue staining based assay
T1 sequence (Q9Y253 whole entry): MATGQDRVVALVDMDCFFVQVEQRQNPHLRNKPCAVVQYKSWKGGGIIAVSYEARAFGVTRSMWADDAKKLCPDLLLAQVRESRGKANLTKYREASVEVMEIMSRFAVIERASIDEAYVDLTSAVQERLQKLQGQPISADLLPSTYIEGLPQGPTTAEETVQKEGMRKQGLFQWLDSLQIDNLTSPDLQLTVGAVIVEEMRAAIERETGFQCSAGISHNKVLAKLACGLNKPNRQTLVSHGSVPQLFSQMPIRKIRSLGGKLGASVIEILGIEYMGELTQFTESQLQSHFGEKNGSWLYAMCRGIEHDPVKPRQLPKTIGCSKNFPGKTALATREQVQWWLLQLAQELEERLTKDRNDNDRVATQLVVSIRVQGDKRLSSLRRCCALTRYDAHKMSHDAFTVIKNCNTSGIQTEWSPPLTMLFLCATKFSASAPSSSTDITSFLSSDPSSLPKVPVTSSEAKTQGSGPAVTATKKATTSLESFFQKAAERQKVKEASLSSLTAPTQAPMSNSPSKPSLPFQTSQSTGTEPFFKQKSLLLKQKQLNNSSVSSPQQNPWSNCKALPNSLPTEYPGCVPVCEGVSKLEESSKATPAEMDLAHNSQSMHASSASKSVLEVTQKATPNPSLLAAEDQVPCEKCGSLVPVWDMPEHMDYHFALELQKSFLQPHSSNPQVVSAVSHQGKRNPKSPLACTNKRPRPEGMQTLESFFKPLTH

[2] = Metabolic stability in mouse plasma assessed as half life at 2 uM incubated upto 120 mins by UPLC/MS analysis; format: ADME, cell-free
[3] = Kinetic solubility of compound in neutral buffer at pH 7.4 at 250 uM measured after 24 hrs by UPLC/MS analysis; format: physicochemical; conditions: read-out: Kinetic_solubility
[4] = Metabolic stability in mouse liver microsome assessed as half life at 4.6 uM incubated upto 60 mins by LC/MS-MS analysis; format: ADME; conditions: liver microsomes
[5] = molecular target: T2, DNA polymerase eta (Homo sapiens) (UniProt Q9Y253); assay: as §1, with “substrate at 1 uM” for “substrate”, “assay relative to control” for “assay”
T2 sequence (whole entry): T1 sequence (Q9Y253 whole entry)

[6] = molecular target: T2, DNA polymerase eta (Homo sapiens); assay: as §1, with “substrate at 100 uM” for “substrate”, “assay relative to control” for “assay”
[7] = molecular target: T1, DNA polymerase eta; assay: Inhibition of human DNA polymerase eta (1 to 437 residues) using 5'-TTT TTT TTG C-TAMRA-3' reporter/5'-(FAM-TTT)-GGGGGAAGGATTC-3' primer/5'-TCACGGAATCCTTCCCCC-3' template as DNA substrate preincubated for 5 to 10 mins followed by DNA substrate addition measured immediately in presence of dTTP/MgCl2 by fluorescence based assay
[8] = molecular target: T1, DNA polymerase eta; assay: Inhibition of 6xHis-tagged human DNA polymerase eta (1 to 437 residues) expressed in Escherichia coli BL21 DE3 assessed as displacement of reporter strand using 5'-TTT TTT TTG C-TAMRA-3' reporter/5'-TCA CCC TCG TAC GAC TCT T-3' primer/5'-BHQ2-GCAAAAAAAAAAGAGTCGTACGAGGGTGA-3' template of 1:1.5:1.5 as DNA substrate preincubated for 5 to 10 mins followed by substrate addition measured immediately in presence of dTTP/MgCl2 by fluorescence based assay
[9] = Inhibition of DNA polymerase (unknown origin); design: species or system Homo sapiens

Structure (SMILES)	IC50 [1] [µM]	also measured
O=c1c(O)c(-c2ccc(O)cc2)oc2cc(O)cc(O)c12 [KAEMPFEROL]	12.7	–
O=c1cc(-c2ccccc2)oc2cc(O)c(O)c(O)c12 [BAICALEIN]	11.8	half-life at 2 µM [2]: > 2 h; solubility kinetic at 24 h, 250 µM [3]: 12 µM (≈ 3.24 µg/mL); half-life at 4.6 µM [4]: 0.683 h
COc1cc(O)cc2oc(-c3ccc(O)c(O)c3)cc(=O)c12	10.2	half-life at 2 µM [2]: > 2 h; solubility kinetic at 24 h, 250 µM [3]: 87 µM (≈ 26.1 µg/mL); half-life at 4.6 µM [4]: > 1 h
O=c1cc(-c2ccc(O)c(O)c2)oc2ccccc12	30.5	–
COc1c(-c2ccc(O)cc2)oc2cc(O)cc(O)c2c1=O [ISOKAEMPFERIDE]	16.1	–
Cc1c(-c2ccc(O)c(O)c2)oc2cc(O)cc(O)c2c1=O	84.6	–
O=c1cc(-c2cccc(O)c2)oc2cc(O)cc(O)c12	5	half-life at 2 µM [2]: > 2 h; solubility kinetic at 24 h, 250 µM [3]: 6 µM (≈ 1.62 µg/mL); half-life at 4.6 µM [4]: 0.183 h
O=c1c(-c2ccc(O)cc2)coc2cc(O)cc(O)c12 [GENISTEIN]	92.4	–
COc1cccc2oc(-c3ccccc3F)cc(=O)c12	> 100	–
O=c1cc(-c2ccc(O)c(O)c2)oc2cc(O)cc(O)c12 [LUTEOLIN]	12.7	inhibition [5]: 49.9%; half-life at 2 µM [2]: > 2 h; solubility kinetic at 24 h, 250 µM [3]: 21 µM (≈ 6.01 µg/mL); inhibition [6]: 95%; half-life at 4.6 µM [4]: > 1 h
O=C1NC(=S)NC(=O)C1=Cc1cn(Cc2ccc3ccccc3c2)c2ccc(Cl)cc12	–	IC50 [7]: 8 µM
O=c1cc(/C=C/c2ccc(O)c(O)c2)oc2cccc(O)c12	> 100	–
COc1cc(O)c2c(=O)cc(-c3ccc4c(c3)OC(F)(F)O4)oc2c1	> 100	–
COc1cccc2oc(-c3ccccc3C)cc(=O)c12	> 100	–
COc1ccc(-c2cc(=O)c3c(OC)c(OC)c(OC)cc3o2)cc1OC [SINENSETIN]	> 100	–
O=c1cc(-c2ccc(O)c(O)c2)oc2cc(O)ccc12	27	–
O=c1cc(Cc2ccc(O)c(O)c2)oc2cccc(O)c12	> 100	–
O=c1cc(-c2ccc3c(c2)OC(F)(F)O3)oc2cc(O)cc(O)c12	> 100	–
O=c1cc(-c2ccc(O)c(O)c2)oc2cc(F)cc(O)c12	13.8	half-life at 2 µM [2]: > 2 h; solubility kinetic at 24 h, 250 µM [3]: < 1 µM; half-life at 4.6 µM [4]: > 1 h

Structure (SMILES)	IC50 [1] [µM]	also measured
O=c1c(OCCO)c(-c2ccc(O)c(O)c2)oc2cc(O)cc(O)c12	87.5	–
O=C1NC(=S)NC(=O)C1=Cc1cn(C(=O)c2ccc3ccccc3c2)c2ccc(Cl)cc12	–	IC50 [8]: 16 µM
O=c1c(O)c(-c2ccc(O)c(O)c2)oc2cc(O)cc(O)c12 [QUERCETIN]	15.8	half-life at 2 µM [2]: 0.117 h; solubility kinetic at 24 h, 250 µM [3]: 16 µM (≈ 4.84 µg/mL); half-life at 4.6 µM [4]: > 1 h
O=c1cc(-c2ccc(O)cc2)oc2cc(O)cc(O)c12 [APIGENIN]	22.2	half-life at 2 µM [2]: > 2 h; solubility kinetic at 24 h, 250 µM [3]: 13 µM (≈ 3.51 µg/mL); half-life at 4.6 µM [4]: 0.133 h
Cc1cc(=O)c2c(CC(=O)CC(O)CC(=O)O)cccc2o1 (racemic)	–	inhibition [5]: 22.8%; inhibition [6]: 100%
O=c1cc(-c2ccccc2)oc2cc(O)cc(O)c12 [CHRYSIN]	14.8	–
O=c1cc(-c2ccc(O)c(O)c2)oc2cccc(O)c12	8.7	half-life at 2 µM [2]: > 2 h; solubility kinetic at 24 h, 250 µM [3]: 9 µM (≈ 2.43 µg/mL); half-life at 4.6 µM [4]: > 1 h
O=C(O)CCc1cc(=O)c2c(O)cc(O)cc2o1	> 100	–
O=C(O)c1cc(-c2cc(=O)c3c(O)cc(O)cc3o2)ccc1O	7.7	–
COc1cccc2oc(-c3ccc(O)cc3C)cc(=O)c12	98.3	–
CCCCc1c(-c2ccc(O)c(O)c2)oc2cc(O)cc(O)c2c1=O	> 100	–
O=C(O)C1=CC(=C(c2ccc(O)c(C(=O)O)c2)c2ccc(O)c(C(=O)O)c2)C=CC1=O [AURINTRICARBOXYLIC ACID]	–	IC50 [9]: 0.4 µM
CCCCOc1c(-c2ccc(O)c(O)c2)oc2cc(O)cc(O)c2c1=O	62.4	–
CCOc1c(-c2ccc(O)c(O)c2)oc2cc(O)cc(O)c2c1=O	33.5	–
CCCc1c(-c2ccc(O)c(O)c2)oc2cc(O)cc(O)c2c1=O	87.1	–
COc1cccc2oc(-c3ccccc3C(F)(F)F)cc(=O)c12	> 100	–
O=c1cc(CCc2ccc(O)c(O)c2)oc2cccc(O)c12	> 100	–
O=C(Nc1ccc(O)c(O)c1)c1cc(=O)c2c(O)cccc2o1	26.5	–
